Results taken from PMC10969560, “Eye Drop with Fas-Blocking Peptide Attenuates Age-Related Macular Degeneration” (Cells, 2024).

Experiments:
[1] = test system: Fas-expressing Jurkat cells; assay: Size-dependent FBP binding test in Jurkat cells (flow cytometry); conditions: N=3, Figure S4A
Text: (§1) Figure S4. Size- dependent FBP binding test in Jurkat cells. (A) Size- dependent FBP flow cytometry analysis of binding in Jurkat cells. (B) Size-dependent FBP flow cytometry analysis of apoptosis in Jurkat cells. The data are pres en ted as the mean ± SD (N=3 per group). *P<0.05, ***P<0.001, and ns indicates not

[2] = test system: Jurkat cells; assay: Flow cytometry analysis of Fas/FasL-mediated apoptosis in Jurkat cells; type: cell-based; conditions: N=3, Figure S4B
Text: as §1

[3] = test system: NaIO3-induced retinal degeneration mice; conditions: mouse, in vivo
Experimental: Retinal degeneration was induced by intravenous injection of NaIO3 (30 mg/kg) in 6-week-old male BALB/c mice (N = 3 per group), weighing 18–22 g (Orient Bio, Seoul, Korea). The eye drop administration group received peptides dissolved in PBS at dosages of 10 mg/mL (50 μg/5 μL) per ocular instillation. For intravitreal administration, peptide solutions dissolved in PBS were administered into the vitreous humor at a concentration of 1 mg/mL (1 μg/1 μL) per administration.
The N-terminal of the target peptide was fluorescently tagged using Alexa Fluor™ 647 NHS Ester (Succinimidyl Ester) (Invitrogen, Carlsbad, CA, USA), following the manufacturer’s protocol. Subsequently, free dye molecules were removed through a PD-10 desalting column (GE Healthcare, Milwaukee, WI, USA). Seven days after induction with NaIO3, Alexa647-conjugated peptides were administered via eye drops. Twelve hours after the last administration, organs were harvested for experiments, and Alexa647 signals were detected on whole organs using a FOBI imaging machine ([sequence], Cheongju, Republic of Korea).
For IHC, eyes were harvested and embedded in the Tissue-Tek® OCT Compound (Sakura Finetek Europe BV, Alphen aan den Rijn, The Netherlands) to prepare cryoblocks for cryosectioning. After freezing the eyes in the Tissue-Tek® OCT Compound, the eyes were cryosectioned to a thickness of 10 μm and mounted with ProLong™ Glass Antifade Mountant with NucBlue™ Stain (Invitrogen). The anti-Fas rabbit mAb (#4233S, Cell Signaling Technology, Danvers, MA, USA) was used to capture the Fas receptor, and the Fas antibody was subsequently detected using Goat Anti-Rabbit IgG H&L (Alexa Fluor® 488) (ab150077, Abcam, Cambridge, UK). A ZEISS Axio Scan.Z1 Slide Scanner (Carl Zeiss, Oberkochen, Germany) was employed to detect NucBlue™ stained cell nuclei and the Alexa647-conjugated peptide signals.

[4] = test system: ARPE-19 cells; assay: Annexin V/PI flow cytometry apoptosis analysis in NaIO3-treated ARPE-19 cells; type: cell-based, human; conditions: ARPE-19, NaIO3 10 mM + peptide 700 μM, 24 h; N=3; Figure 1B
Experimental: The efficacy of FBP on the inhibition of ARPE-19 cell apoptosis was assessed through annexin V/propidium iodide (PI) staining, followed by flow cytometry analysis. […] After 24 h of treatment with NaIO3 (10 mM) and the FBP peptide (700 μM), the cells were harvested and stained using the Dead Cell Apoptosis Kits with annexin V for Flow Cytometry (Invitrogen, Carlsbad, CA, USA), following the manufacturer’s protocol. The stained cells were collected and analyzed using a BD FACSCalibur™ system (Becton Dickinson, Franklin Lakes, NJ, USA).

[5] = test system: NaIO3-induced ARPE-19 cells; assay: CCK-8 cell viability in NaIO3-induced ARPE-19 cells; type: cell-based, human; conditions: NaIO3 10 mM, 24 h, FBP 100, 300, 500, 700, 900 μM, three independent experiments, Figure S2
Experimental: All experiments were performed using cells within specified passages.
Figure S2. Concentration -dependent cel l viability in NaI O3-indu ced ARPE-19 cells. Cell viability under concentration-dependent conditions wa s evaluated in NaIO3-induced ARPE- 19 cells. The data are presented as the mean ± SD from three independent experiments. ***P<0.001, and ns indicates not significa nt.

[6] = test system: NF-κB, ERK, and JNK; assay: RT-PCR of cytokine and signaling pathway-related genes in NaIO3-treated ARPE-19 cells; type: cell-based, human; conditions: ARPE-19, NaIO3 10 mM + FBP 700 μM, 24 h; Figure 1D
Experimental: (§2) After 24 h of treatment with NaIO3 (10 mM) and the FBP peptide (700 μM), the cells were harvested for analysis. Total RNA from the ARPE-19 cells was extracted using the RNAiso kit (Takara, Kyoto, Japan). Total RNA was reverse-transcribed into cDNA using the High-Capacity cDNA Reverse Transcription Kit (Applied Biosystems, Waltham, MA, USA). The quantification of gene expression was performed using PowerUp™ SYBR™ Green Master Mix (Thermo Fisher Scientific, Waltham, MA, USA) on an ABI 7500 Fast Real-Time PCR system (Applied Biosystems, Waltham, MA, USA). The sequences of primer pairs used for real-time PCR are depicted in Table 2.

[7] = test system: NaIO3-induced retinal degeneration mice; assay: TUNEL assay in NaIO3-induced retinal degeneration mouse model; type: in vivo, BALB/c mice; conditions: N=3, Figure 3C
Experimental: (§3) To confirm the therapeutic effect of 6R-FBP, histological evaluation was conducted through hematoxylin and eosin (H&E) staining and the TUNEL assay. The eyes were fixed with 4% paraformaldehyde in PBS at room temperature for 20 min. After fixation, the eyes were sequentially incubated in 10%, 20%, and 30% (w/v) sucrose solution diluted in PBS for 30 min each at room temperature. Subsequently, the eyeballs were sagittally halved with a razor blade and embedded in Tissue-Tek® OCT Compound, and then frozen immediately in a liquid nitrogen chamber. Trimming was minimized to maintain controlled distances and ensure consistency, and sections were sliced at a thickness of 10 μm. Sections from the eye cryoblock were used for H&E staining and the TUNEL assay. The TUNEL assay was conducted according to the manufacturer’s protocol using the TUNEL assay kit (Abcam).

[8] = test system: Fas; assay: RT-PCR of Fas expression in NaIO3-treated ARPE-19 cells; type: cell-based, human; conditions: ARPE-19, NaIO3 10 mM + peptide 700 μM, 24 h; N=3; Figure 1A
Experimental: as §2

[9] = test system: NaIO3-induced retinal degeneration rabbits; assay: H&E staining, ONL to total retinal thickness, in NaIO3-induced retinal degeneration rabbits; type: in vivo, chinchilla rabbits; conditions: rabbit, Day 14, N=4, Figure 4D
Experimental: (§4) The efficacy of the treatment was evaluated through an experiment conducted by KNOTUS, a contract research organization. In brief, retinal degeneration was induced by intravenous injection of NaIO3 (60 mg/kg) in 20 chinchilla rabbits, weighing 2 kg.
(§5) The eye drop administration group received dosages of 5 mg/mL (250 μg/50 μL) per ocular instillation. For intravitreal administration, peptide solutions (5 mg/mL) were administered in increments of 40 μL per administration. A pipette was used to administer the test substance onto the central cornea of the right eye for each experimental group.
(§6) Anesthetized animals were administered the test substance via subconjunctival injection into the right eye using a 31-gauge syringe needle attached to a syringe. In the case of eye drop administration, the peptides and PBS were administered twice daily for 2 weeks, for a total of 28 administrations. For intravitreal administration, a single dose of the peptide was administered the day after the NaIO3 injection.
On the concluding day of the experiment (Day 14), the animals were anesthetized using the previously described mixture of Zoletil®50 and Rompun^TM, after which they were sacrificed. NaIO3-induced retinal degeneration eyes were then extracted, and the central cornea was punctured using an injection needle. Subsequently, the specimens were fixed in a 10% neutral buffered formalin solution. For histopathological examination, the fixed tissues were subjected to processes such as fixation, dehydration, paraffin embedding, and sectioning. H&E staining was then performed, and the proportion (%) of the thickness of the outer nuclear layer (ONL) to the overall retinal thickness was calculated using an Olympus BX-53 optical microscope (Olympus, Tokyo, Japan). Two slides were prepared per eyeball relative to the optic nerve. Measurements were taken at three points on each slide, amounting to a total of six values, which were averaged.

[10] = test system: NaIO3-induced retinal degeneration mice; assay: In vivo real-time PCR of eye posterior hemisphere in NaIO3-induced retinal degeneration mouse model; parameters: species or system BALB/c mice; conditions: N=3, Figure 3D; for expression of Fas receptor, inflammatory cytokines, and macrophages compared to the mock group (qPCR): posterior hemisphere
Text: The mouse eye posterior hemisphere was dissected using Vannas scissors. Subsequently, total RNA was extracted from the posterior hemisphere of the left eye using the RNAiso kit (Takara). RNA was reverse-transcribed with the High-Capacity cDNA Reverse Transcription Kit (Applied Biosystems, Waltham, MA, USA) and quantified using PowerUp™ SYBR™ Green Master Mix (Thermo Fisher Scientific, Waltham, MA, USA) on an ABI 7500 Fast Real-Time PCR system (Applied Biosystems, Waltham, MA, USA). Relative expression was determined using the ΔΔCt method, normalized against GAPDH mRNA levels. The primer sequences used are depicted in Table 2.

[11] = test system: NaIO3-induced retinal degeneration rabbits; assay: Fundus imaging of RPE degenerated area in NaIO3-induced retinal degeneration rabbit model; type: in vivo, chinchilla rabbits; conditions: for RPE degeneration compared with mock treatment (fundus imaging): NaIO3 60 mg/kg i.v., N=4, Figure 4B; for level of RPE degeneration on day 14 compared with mock group (fundus imaging): day 14, N=4, Figure 4B
Experimental: as §4, §5, §6
Before the administration of NaIO3 (Day 0) and upon concluding the experiment (Day 14), the right eyes of the rabbits were treated with a mydriatic agent (1% midriacyl eye drops). Subsequently, the rabbits were anesthetized with a mixture of Zoletil®50 (Virbac, Carros, France) and Rompun^TM (Bayer AG, Leverkusen, Germany) through intravenous injection (marginal ear vein) at a dosage of 0.1 mL/kg. Fundus imaging was conducted using a fundus camera (TRC-50IX, TOPCON, Tokyo, Japan). The retinal images were analyzed using Image J software version 1.54d (NIH, Bethesda, MD, USA) to determine the area of degeneration in the RPE, with the RPE injury area being manually selected. The total area of the retina, excluding the optic nerve region, was defined as the total area. The proportion of degenerated area was calculated as a percentage using Equation (1). Degenerated area (%) = Degenerated area/Total area(1)

[12] = test system: NaIO3-induced retinal degeneration mice; assay: H&E histology in NaIO3-induced retinal degeneration mouse model; type: in vivo, BALB/c mice; conditions: NaIO3 30 mg/kg i.v., N=3, Figure 3B
Experimental: as §3

[13] = test system: Fas/FasL; conditions: neuronal cells; previous study; cited from earlier work
[14] = test system: cleaved caspase-3 and 8; assay: Western blot of apoptosis-related proteins in NaIO3-treated ARPE-19 cells; type: cell-based, human; conditions: ARPE-19, NaIO3-treated; Figure 1C
Experimental: Total protein samples were extracted from ARPE-19 cells using ice-cold RIPA buffer containing a protease inhibitor cocktail. A 4× sample buffer containing Tris-(2-Carboxyethyl)phosphine (Invitrogen, Carlsbad, CA, USA) was prepared by mixing 950 µL of 4× Laemmli sample buffer (GenDEPOT) with 50 µL of Tris-(2-Carboxyethyl)phosphine (Invitrogen). Protein samples (15 μg) were diluted in the sample buffer and heated at 95 °C for 5 min. The samples were then loaded onto a 12% SDS-PAGE gel and transferred onto a PVDF transfer membrane. The blots were probed with rabbit anti-cleaved caspase-3 (1:1000, Abcam, Cambridge, UK, ab52293), anti-cleaved caspase-8 (1:1000, Abcam, ab25901) and rabbit polyclonal anti-Fas (1:1000, Abcam, ab82419). Secondary polyclonal antibodies were probed with rabbit IgG coupled to HRP (1:2000, Abcam, ab97051). Finally, the blots were developed using ECL Western blotting substrate (Promega, Madison, WI, USA).

[15] = test system: ARPE-19 cells
Experimental: To confirm the cytotoxicity of CPP-conjugated FBP (4R-FBP, 5R-FBP, 6R-FBP, 9R-FBP) on ARPE-19 cells, the cells were plated in a 12-well plate at a density of 2 × 10^5/mL. After 24 h of treatment with various peptides (4R-FBP, 5R-FBP, 6R-FBP, 9R-FBP, and FBP), the CCK-8 assay was performed as per the manufacturer’s protocol.
Peptide toxicity was assessed
using CCK-8 assay in ARPE-19 cell. The data are presented as the mean ± SD (N=3 per group). ns

[16] = eye drops 5 mg/mL (250 μg/50 μL) twice daily for 14 days
[17] = eye drop application, peptides 10 mg/mL (50 μg/5 μL)

Row | Molecule | binding to Fas-expressing Jurkat cells [1] | inhibition of Fas/FasL-mediated apoptosis [2] | size-dependent retinal delivery (confocal, Alexa647 signal) [3] | apoptosis (annexin V/PI staining) compared with mock group [4] | apoptosis levels in retina (TUNEL) ([7]; eye drop application) | expression of Fas (RT-PCR) [8] | proportion of thickness of ONL to total retinal thickness compared with mock group (H&E) ([9]; eye drops twice daily) | RPE degeneration compared with mock treatment (fundus imaging) [11, 16] | therapeutic effect on integrity of the retinal layer (H&E staining) [12, 17] | levels of cleaved caspase-3 and 8 (Western blot) [14] | levels of M2 macrophages compared to the mock group (qPCR, CD206) ([10]; eye drop application) | expression of Fas receptor, inflammatory cytokines, and macrophages compared to the mock group (qPCR) ([10]; eye drop application) | other results
1 | DEHF [4-mer] | demonstrated binding | could not inhibit | successfully delivered |  |  |  |  |  |  |  |  |  | 
2 | YCDEHFCY [FBP] |  |  |  | statistically significant decrease in apoptosis | higher apoptosis levels | reduced | maintenance of the ONL | significant reduction in RPE degeneration | no therapeutic effect | significant decrease |  |  | FBP concentration at which viability of NaIO3-induced ARPE-19 cells was maximum [5]: exceeding 700 μM; levels of NF-κB, ERK, and JNK (RT-PCR) [6]: decreased levels; apoptosis levels in retina (TUNEL) ([7]; intravitreal injection): lower apoptosis levels; proportion of thickness of ONL to total retinal thickness compared with mock group (H&E) ([9]; single intravitreal injection): maintenance of the ONL; levels of M2 macrophages compared to the mock group (qPCR, CD206) ([10]; intravitreal injection): increased levels; expression of Fas receptor, inflammatory cytokines, and macrophages compared to the mock group (qPCR) ([10]; intravitreal injection): decreased expression; RPE degeneration compared with mock treatment (fundus imaging) ([11]; single intravitreal injection 5 mg/mL, 40 μL): significant reduction in RPE degeneration; level of RPE degeneration on day 14 compared with mock group (fundus imaging) ([11]; eye drops twice daily for 14 days): significantly lower; level of RPE degeneration on day 14 compared with mock group (fundus imaging) ([11]; single intravitreal injection): significantly lower; therapeutic effect on integrity of the retinal layer (H&E staining) ([12]; intravitreal injection 1 mg/mL (1 μg/1 μL)): therapeutic effects; transfer to other organs (fluorescence signal vs normal group) [3]: not transferred to any other organ but the eyes; inhibition of Fas/FasL ligation [13]: effective inhibition of Fas/FasL ligation
3 | C[C@@H]1C[C@H]2[C@@H]3CCC4=CC(=O)C=C[C@]4(C)[C@@]3(F)[C@@H](O)C[C@]2(C)[C@@]1(O)C(=O)CO [Dexa, dexamethasone, reference compound] |  |  |  |  | lower apoptosis levels |  |  |  | therapeutic effects |  | increased levels | decreased expression | 
4 | GGGRRGGG [Ctrl, nonspecific control peptide, GGGRRGGG, reference compound] |  |  |  | no protective effects against apoptosis | higher apoptosis levels | increased |  |  | no therapeutic effect | upregulation |  |  | 
5 | RRRRRRGGGGYCDEHFCY [6R-FBP] |  |  | robust fluorescence signals |  | lower apoptosis levels |  | maintenance of the ONL | significant reduction in RPE degeneration | therapeutic effects |  | increased levels | decreased expression | toxicity of CPP-conjugated FBP in retinal cells [15]: lower toxicity
6 | CDEHF [5-mer, 5-mer truncated FBP, CDEHF] | demonstrated binding | could not inhibit |  |  |  |  |  |  |  |  |  |  | 
